The results in this text go back to US4371537A, “Sulfur-substituted phenoxypyridines having antiviral activity” (The Dow Chemical Company, priority 1981, dated 1983).

Values after ≈ are worked out from the molar mass of the structure shown. Where only a bound is given, the exact number is not on record here.

One test has as its system Rhinovirus Type 81. Nature of the test: Inhibition of cytopathic effect in WI-38 cell culture tubes, rhinovirus type 81. Type of test: cell-based. Conditions: Enterovirus; 12.5 μg/ml; WI-38 cells; read-out: Inhibition grade, Rhinovirus Type 81. In short, it runs like this: (§1)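 Read-out: daily microscopic scoring of cytopathic effect, graded against virus-only controls as "+" ≥75%, "±" 74-50%, "-" <50% inhibition. Triplicate WI-38 tubes; compound pre-heated at 56° C in DMSO stock, diluted into maintenance medium; inoculum 3-300 TCID50.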
For orientation: Damage to the host cells serves as the signal in cytopathic effect assays.

For a further test, the system named is Hanks Untyped. Nature of the test: Inhibition of cytopathic effect in WI-38 cell culture tubes, Hanks Untyped. In kind it is cell-based, rhinovirus. Conditions: Enterovirus; 12.5 μg/ml; WI-38 cells; read-out: Inhibition grade, Hanks Untyped. A digest of the protocol: as §1
A further test relates to Rhinovirus Type 74. Nature of the test: Inhibition of cytopathic effect in WI-38 cell culture tubes, rhinovirus type 74. In kind it is cell-based. Conditions: Enterovirus; 12.5 μg/ml; WI-38 cells; read-out: Inhibition grade, Rhinovirus Type 74. A digest of the protocol: as §1
For a further test, the system named is Rhinovirus Type 59. As to the kind of experiment: Inhibition of cytopathic effect in WI-38 cell culture tubes, rhinovirus type 59. Type of test: cell-based. Conditions: Enterovirus; 12.5 μg/ml; WI-38 cells; read-out: Inhibition grade, Rhinovirus Type 59. A digest of the protocol:
as §1

In another test the test system is Rhinovirus Type 21. Nature of the test: Inhibition of cytopathic effect in WI-38 cell culture tubes, rhinovirus type 21. Type of test: cell-based. Conditions: Enterovirus; 12.5 μg/ml; WI-38 cells; read-out: Inhibition grade, Rhinovirus Type 21. A digest of the protocol: as §1
A further test concerns Rhinovirus Type 60. As to the kind of experiment: Inhibition of cytopathic effect in WI-38 cell culture tubes, rhinovirus type 60. Type of test: cell-based. The note with it: Enterovirus; 12.5 μg/ml; WI-38 cells; read-out: Inhibition grade, Rhinovirus Type 60. In short, it runs like this:
as §1

A further test has as its system rhinovirus type 2 (RV-2). As to the kind of experiment: Tissue culture testing, rhinovirus type 2 in HeLa cells. The note with it: Enterovirus, 48 and 72 hours, NA = not active at the standard test conditions, read-out: RV-2: lowest concentration of the compound necessary to cause a 50 percent reduction in cytopathic effect. In kind it is cell-based. In short, it runs like this: (§2)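 HeLa monolayers, compound in Eagle's medium + fetal calf serum, then virus challenge; no-compound and no-virus controls. Value = lowest active concentration, μg/ml.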

For the next test, the system named is rhinovirus type 8 (RV-8). Nature of the test: Tissue culture testing, rhinovirus type 8 in HeLa cells. In kind it is cell-based. The note with it: Enterovirus, 48 and 72 hours, NA = not active at the standard test conditions, read-out: RV-8: lowest concentration of the compound necessary to cause a 50 percent reduction in cytopathic effect. In short, it runs like this: as §2

A further test deals with Rhinovirus Type 75. Nature of the test: Inhibition of cytopathic effect in WI-38 cell culture tubes, rhinovirus type 75. In kind it is cell-based. Conditions: Enterovirus; 12.5 μg/ml; WI-38 cells; read-out: Inhibition grade, Rhinovirus Type 75. A digest of the protocol:
as §1

The next test relates to Rhinovirus Type 56. As to the kind of experiment: Inhibition of cytopathic effect in WI-38 cell culture tubes, rhinovirus type 56. Type of test: cell-based. The note with it: Enterovirus; 12.5 μg/ml; WI-38 cells; read-out: Inhibition grade, Rhinovirus Type 56. In short, it runs like this: as §1
In the next test the test system is Rhinovirus Type 6. As to the kind of experiment: Inhibition of cytopathic effect in WI-38 cell culture tubes, rhinovirus type 6. In kind it is cell-based. The note with it: Enterovirus; 12.5 μg/ml; WI-38 cells; read-out: Inhibition grade, Rhinovirus Type 6. A digest of the protocol: as §1
A further test concerns Coxsackie A21 virus. As to the kind of experiment: Continuous Oral Feeding test in mice challenged IP with Coxsackie A21 virus. Conditions: po, 0.06 % in diet, 240 h. Type of test: in vivo. In short, it runs like this: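 Activity judged by chi-square on 10-day deaths versus untreated controls, with values above 3.84 counted active at 95% confidence. The IP challenge (0.2 ml/mouse, HeLa-grown virus, 80 to 100% lethal in 8 to 12 g mice) came on day 1, after diet containing 0.06% (weight percent) compound began on day 0.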

Another test has as its system Rhinovirus Type 17. Nature of the test: Inhibition of cytopathic effect in WI-38 cell culture tubes, rhinovirus type 17. Type of test: cell-based. The note with it: Enterovirus; 12.5 μg/ml; WI-38 cells; read-out: Inhibition grade, Rhinovirus Type 17. A digest of the protocol: as §1
For the next test, the system named is Rhinovirus Type 58. Nature of the test: Inhibition of cytopathic effect in WI-38 cell culture tubes, rhinovirus type 58. Type of test: cell-based. The note with it: Enterovirus; 12.5 μg/ml; WI-38 cells; read-out: Inhibition grade, Rhinovirus Type 58. A digest of the protocol: as §1
Test [1] concerns rhinovirus type 1A (RV-1A). As to the kind of experiment: Tissue culture testing, rhinovirus type 1A in HeLa cells. In kind it is cell-based. Conditions: Enterovirus, 48 and 72 hours, NA = not active at the standard test conditions, read-out: RV-1A: lowest concentration of the compound necessary to cause a 50 percent reduction in cytopathic effect. In short, it runs like this: as §2

Test [2] relates to rhinovirus type 64 (RV-64). As to the kind of experiment: Tissue culture testing, rhinovirus type 64 in HeLa cells. The note with it: Enterovirus, 48 and 72 hours, NA = not active at the standard test conditions, read-out: RV-64: lowest concentration of the compound necessary to cause a 50 percent reduction in cytopathic effect. Type of test: cell-based. A digest of the protocol: as §2

A further test relates to Rhinovirus Type 13. Nature of the test: Inhibition of cytopathic effect in WI-38 cell culture tubes, rhinovirus type 13. In kind it is cell-based. The note with it: Enterovirus; 12.5 μg/ml; WI-38 cells; read-out: Inhibition grade, Rhinovirus Type 13. A digest of the protocol: as §1
The next test relates to Rhinovirus Type 10. Nature of the test: Inhibition of cytopathic effect in WI-38 cell culture tubes, rhinovirus type 10. In kind it is cell-based. The note with it: Enterovirus; 12.5 μg/ml; WI-38 cells; read-out: Inhibition grade, Rhinovirus Type 10. In short, it runs like this: as §1
The test system of a further test is Rhinovirus Type 29. Nature of the test: Inhibition of cytopathic effect in WI-38 cell culture tubes, rhinovirus type 29. In kind it is cell-based. The note with it: Enterovirus; 12.5 μg/ml; WI-38 cells; read-out: Inhibition grade, Rhinovirus Type 29. A digest of the protocol: as §1
The subject of the next test is Rhinovirus Type 4. As to the kind of experiment: Inhibition of cytopathic effect in WI-38 cell culture tubes, rhinovirus type 4. Type of test: cell-based. Conditions: Enterovirus; 12.5 μg/ml; WI-38 cells; read-out: Inhibition grade, Rhinovirus Type 4. A digest of the protocol: as §1

On to `CCS(=O)(=O)c1ccc(Oc2ccc(Cl)cc2)nc1` [Example 42, 2-(4-chlorophenoxy)-5-(ethylsulfonyl)pyridine], for which the inhibition at 12.5 µg/mL with Rhinovirus Type 81 was no less than 75%; in the test on Hanks Untyped, no less than 75%; in the test on Rhinovirus Type 74, no less than 75%; in the test on Rhinovirus Type 59, no less than 75%; with Rhinovirus Type 21, 50 to 74%; in the test with Rhinovirus Type 60, no less than 75%. In addition, the inhibition at 12.5 µg/mL in the test on Rhinovirus Type 75 is 50 to 74%; with Rhinovirus Type 56, 50 to 74%; in the test on Rhinovirus Type 6, no less than 75%; with Rhinovirus Type 17 it was no less than 75%; in the test with Rhinovirus Type 58, no less than 75%; in the test with Rhinovirus Type 13, less than 50%. Also, the inhibition at 12.5 µg/mL with Rhinovirus Type 10 is 50 to 74%; in the test on Rhinovirus Type 29, no less than 75%; with Rhinovirus Type 4, no less than 75%. Besides, the EC50 in the test on rhinovirus type 2 (RV-2) was 3.12 µg/mL (≈ 10.5 µM); in the test on rhinovirus type 8 (RV-8), roughly 50 µg/mL (≈ 168 µM); in test [1], 6.25 µg/mL (≈ 21 µM); in test [2], no more than 3.12 µg/mL. Moreover, the “Continuous Oral Feeding X^2 (chi-square, deaths vs control)” value with Coxsackie A21 virus was 17.64.

In general, inhibition refers to how much of the control response was suppressed.
